In brackets after ≈: the same amount, converted by molar mass. Where a SMILES comes first, the peptide text is derived from it. Bridges are numbered along the chain shown (N, C = ends). [ ]: non-standard residue; d: D form. The star is where a group is joined. ξ: configuration not given here. Hexanoyl(4ξ-Me) = CCC(C)CCC(=O)*; dOrn = NCCC[C@@H](N)C(=O)O; Orn = NCCC[C@H](N)C(=O)O
Experiments:
[1] = tested on: S. aureus USA300; format: cell-based; details: USA300, 18 h
Experimental: (§1) The antibacterial activities of relacidine A (3a) and B (4a), along with diastereomers 3b and 4b–d and relacidamide (5), were assessed using a standard microbroth dilution assay to establish minimum inhibitory concentration (MIC) values against a panel of Gram-negative bacteria (Table 1). The MIC values measured for synthetic relacidine A (3a) and B (4a) agree well with those previously published.[9] […] Relacidine A (3a) and B (4a), as well as relacidamide (5), were further tested against a panel of colistin-resistant A. baumannii clinical isolates, which confirmed their ability to prevent the growth of colistin-resistant isolates (Supplemental Table S2). […] Also of interest was the finding that while relacidine B (4a) induced <1% hemolysis, a substitution of either the L-Ala or L-Ser to D-Ala or D-Ser increased hemolytic activity to 8–12%. […] The greater hydrolytic stability of relacidine B would appear to be attributable to the increased steric bulk of the Ala side chain next to the ester linkage (compared with the methylene of Gly in relacidine A), which may hinder the nucleophilic attack of water at the ester carbonyl.
(§2) Colistin sulfate was purchased from Activate Scientific. Kanamycin monosulfate was purchased from MP Biomedicals. E. coli ATCC 25922, S. aureus USA300 (ATCC BAA1717), and K. pneumoniae ATCC 13883 belong to the American Type Culture Collection (ATCC). P. aeruginosa PAO1 was kindly provided by L.H.C. Quarles Van Ufford of Utrecht University, Utrecht, The Netherlands. E. coli ATCC 25922 MCR-1 was transfected in-house using the pGDP2-MCR1 plasmid kindly provided by Yong-Xin Li of The University of Hong Kong, Hong Kong, China. Sheep blood agar plates (ref. PB5039A) were purchased from Thermo Scientific. Tryptic soy broth (ref. 02-200-500) was purchased from Scharlab. Mueller-Hinton broth (ref. X927.1) was purchased from Carl Roth. Polypropylene 96-wells plates (ref. 3879) were purchased from Corning.
(§3) MICs were determined according to Clinical and Standards Laboratory Institute (CLSI) guidelines. Blood agar plates were inoculated with glycerol stocks of E. coli ATCC 25922, K. pneumoniae ATCC 13883, P. aeruginosa PAO1, and S. aureus USA300. The inoculated agar plates were then incubated for 16 h at 37 °C. Individually grown colonies were subsequently used to inoculate 5 mL aliquots of tryptic soy broth (TSB) that were then incubated at 37 °C with shaking at 220 rpm. E. coli 25922 MCR-1 glycerol stock was used to inoculate 5 mL of TSB supplemented with kanamycin that was then incubated for 16 h at 37 °C with shaking at 220 rpm. The next day, the culture was diluted 100-fold in TSB supplemented with kanamycin and incubated at 37 °C with shaking at 220 rpm. In parallel, the lipopeptide antibiotic DMSO stocks to be assessed were serially diluted with Mueller Hinton broth (MHB) in polypropylene 96-well plates (50 μL in each well). Colistin sulfate stocks were dissolved in water before being diluted with MHB. Aliquots of the inoculated TSB were incubated until an OD600 of around 0.5 was reached. The bacterial suspensions were then diluted with MHB (2 × 10^5 cfu mL^–1) and added to the microplates containing the test compounds (50 μL to each well). The well plates were sealed with an adhesive membrane, and after 18 h of incubation at 37 °C with shaking at 600 rpm, the wells were visually inspected for bacterial growth. MIC values reported are based on three technical replicates and defined as the lowest concentration of the compound that prevented visible growth of bacteria.

[2] = tested on: E. coli ATCC 25922; format: cell-based; details: ATCC 25922, 18 h
Experimental: as §1, §2, §3

[3] = tested on: K. pneumoniae ATCC 13883; format: cell-based; details: ATCC 13883, 18 h
Experimental: as §1, §2, §3

[4] = tested on: E. coli ATCC 25922 mcr-1; format: cell-based; details: CLSI microbroth dilution, Mueller Hinton broth, 18 h at 37 °C, visual read-out, three technical replicates; mcr-1 colistin resistance plasmid
Experimental: as §1, §2, §3

[5] = tested on: P. aeruginosa PAO1; format: cell-based; details: PAO1, 18 h
Experimental: as §1, §2, §3

[6] = tested on: A. baumannii BV94; format: cell-based; details: BV94, 18 h
Experimental: (§4) VIII. Antimicrobial testing
(§5) Table S2. Minimum inhibitory concentrations (MICs) determined against panel of previously characterized colistin-resistant A. baumannii clinical isolates5
(§6) Strain Relacidine A (3a) Relacidine B (4a) Relacidamide (5) Colistin […]
(§7) aMIC values given in µg/ml.
(§8) All minimum inhibitory concentrations were determined according to Clinical and Standards Laboratory Institute (CLSI) guidelines. Blood agar plates were inoculated from glycerol stocks of the different A. baumannii strains used and then incubated for 16 h at 37 °C . Individually grown colonies were subsequently used to inoculate 5 mL aliquots of TSB that were then incubated at 37 °C. In parallel, the lipopeptide antibiotics DMSO stocks to be assessed were serially diluted with cation-adjusted MHB in polypropylene 96-well plates (50 µL in each well). Colistin sulfate stocks were dissolved in water before being diluted with cation-adjusted MHB. The A. baumannii inoculated TSB aliquots were incubated until an OD600 of around 0.5 was reached. The bacterial suspensions were then diluted with cation-adjusted MHB (2 x 10^5 CFU mL-1) and added to the microplates containing the test compounds (50 µL to each well). The well-plates were sealed with an adhesive membrane and after 18 h of incubation at 37 °C visually inspected for bacterial growth. MIC values reported are based on three technical replicates and defined as the lowest concentration of the compound that prevented visible

[7] = tested on: A. baumannii HUMC1; format: cell-based; details: HUMC1, 18 h
Experimental: as §4, §5, §6, §7, §8

[8] = tested on: A. baumannii BV172; format: cell-based; details: BV172, 18 h
Experimental: as §4, §5, §6, §7, §8

[9] = tested on: A. baumannii ATCC 17978; format: cell-based; details: ATCC 17978, 18 h
Experimental: as §4, §5, §6, §7, §8

[10] = tested on: A. baumannii LAC-4; format: cell-based; details: LAC-4, 18 h
Experimental: as §4, §5, §6, §7, §8

[11] = tested on: A. baumannii BV173; format: cell-based; details: BV173, 18 h
Experimental: as §4, §5, §6, §7, §8

[12] = tested on: A. baumannii NCTC 13420; format: cell-based; details: NCTC 13420, 18 h
Experimental: as §4, §5, §6, §7, §8

[13] = tested on: A. baumannii NCTC 13304; format: cell-based; details: NCTC 13304, 18 h
Experimental: as §4, §5, §6, §7, §8

[14] = tested on: A. baumannii BV95; format: cell-based; details: BV95, 18 h
Experimental: as §4, §5, §6, §7, §8

[15] = human serum (obtained from Sigma Aldrich, product number: H4522); details: 37 °C, up to 24 h

Compound	MIC S. aureus USA300 [1] [µg/mL]	MIC E. coli ATCC 25922 [2] [µg/mL]	MIC K. pneumoniae ATCC 13883 [3] [µg/mL]	MIC E. coli ATCC 25922 mcr-1 [4] [µg/mL]	MIC P. aeruginosa PAO1 [5] [µg/mL]	MIC A. baumannii BV94 [6] [µg/mL]	MIC A. baumannii HUMC1 [7] [µg/mL]	MIC A. baumannii BV172 [8] [µg/mL]	MIC A. baumannii ATCC 17978 [9] [µg/mL]	MIC A. baumannii LAC-4 [10] [µg/mL]	MIC A. baumannii BV173 [11] [µg/mL]	MIC A. baumannii NCTC 13420 [12] [µg/mL]	MIC A. baumannii NCTC 13304 [13] [µg/mL]	MIC A. baumannii BV95 [14] [µg/mL]	not cleaved [15]
CCC(C)CCC(=O)N[C@H](CO)C(=O)N[C@H](Cc1ccc(O)cc1)C(=O)N[C@H](Cc1c[nH]c2ccccc12)C(=O)N[C@H](CCCN)C(=O)N[C@@H](CCCN)C(=O)NCC(=O)N[C@H](CCCN)C(=O)N[C@@H](Cc1c[nH]c2ccccc12)C(=O)N[C@@H]1C(=O)N[C@@H]([C@@H](C)CC)C(=O)NCC(=O)N[C@@H](CO)C(=O)NCC(=O)O[C@@H]1C (stereo partly shown) [3a, Relacidine A] ({Hexanoyl(4ξ-Me)}-[dS][dY][dW][dOrn][Orn]G[dOrn]WTIGSG; ester 9-C)	>32	2 (≈ 1.29 µM)	4 (≈ 2.58 µM)	2 to 4	4 (≈ 2.58 µM)	8 (≈ 5.16 µM)	16 (≈ 10.3 µM)	16 (≈ 10.3 µM)	8 (≈ 5.16 µM)	4 (≈ 2.58 µM)	8 (≈ 5.16 µM)	8 (≈ 5.16 µM)	4 (≈ 2.58 µM)	8 (≈ 5.16 µM)	
CCC(C)CCC(=O)N[C@H](CO)C(=O)N[C@H](Cc1ccc(O)cc1)C(=O)N[C@H](Cc1c[nH]c2ccccc12)C(=O)N[C@H](CCCN)C(=O)N[C@@H](CCCN)C(=O)NCC(=O)N[C@H](CCCN)C(=O)N[C@@H](Cc1c[nH]c2ccccc12)C(=O)N[C@@H]1C(=O)N[C@@H]([C@@H](C)CC)C(=O)NCC(=O)N[C@H](CO)C(=O)NCC(=O)O[C@@H]1C (stereo partly drawn) [3b, D-Ser12-Relacidine A] ({Hexanoyl(4ξ-Me)}-[dS][dY][dW][dOrn][Orn]G[dOrn]WTIG[dS]G; ester 9-C)	>32	2 to 4	4 (≈ 2.58 µM)	4 (≈ 2.58 µM)	2 (≈ 1.29 µM)										
D-Ser1 D-Tyr2 D-Trp3 D-Orn4 Orn5 Gly6 D-Orn7 Trp8 Thr9 Ile10 Gly11 Ser12 Ala13 Lipid															highly resistant to degradation in human serum even after 24 h of incubation
CCC(C)CCC(=O)N[C@H](CO)C(=O)N[C@H](Cc1ccc(O)cc1)C(=O)N[C@H](Cc1c[nH]c2ccccc12)C(=O)N[C@H](CCCN)C(=O)N[C@@H](CCCN)C(=O)NCC(=O)N[C@H](CCCN)C(=O)N[C@@H](Cc1c[nH]c2ccccc12)C(=O)N[C@@H]1C(=O)N[C@@H]([C@@H](C)CC)C(=O)NCC(=O)N[C@H](CO)C(=O)N[C@H](C)C(=O)O[C@@H]1C (stereo partly drawn) [4d, D-Ala13, D-Ser12-Relacdine B] ({Hexanoyl(4ξ-Me)}-[dS][dY][dW][dOrn][Orn]G[dOrn]WTIG[dS][dA]; ester 9-C)	>32	2 (≈ 1.28 µM)	2 to 4	2 to 4	8 (≈ 5.12 µM)										
CCC(C)CCC(=O)N[C@H](CO)C(=O)N[C@H](Cc1ccc(O)cc1)C(=O)N[C@H](Cc1c[nH]c2ccccc12)C(=O)N[C@H](CCCN)C(=O)N[C@@H](CCCN)C(=O)NCC(=O)N[C@H](CCCN)C(=O)N[C@@H](Cc1c[nH]c2ccccc12)C(=O)N[C@@H]1C(=O)N[C@@H]([C@@H](C)CC)C(=O)NCC(=O)N[C@@H](CO)C(=O)N[C@@H](C)C(=O)O[C@@H]1C (stereo partly shown) [4a, Relacidine B] ({Hexanoyl(4ξ-Me)}-[dS][dY][dW][dOrn][Orn]G[dOrn]WTIGSA; ester 9-C)	>32	1 (≈ 0.639 µM)	4 (≈ 2.56 µM)	2 (≈ 1.28 µM)	4 (≈ 2.56 µM)	16 (≈ 10.2 µM)	8 (≈ 5.12 µM)	16 (≈ 10.2 µM)	4 (≈ 2.56 µM)	8 (≈ 5.12 µM)	16 (≈ 10.2 µM)	16 (≈ 10.2 µM)	4 (≈ 2.56 µM)	8 (≈ 5.12 µM)	
CCC(C)CCC(=O)N[C@H](CO)C(=O)N[C@H](Cc1ccc(O)cc1)C(=O)N[C@H](Cc1c[nH]c2ccccc12)C(=O)N[C@H](CCCN)C(=O)N[C@@H](CCCN)C(=O)NCC(=O)N[C@H](CCCN)C(=O)N[C@@H](Cc1c[nH]c2ccccc12)C(=O)N[C@@H]1C(=O)N[C@@H]([C@@H](C)CC)C(=O)NCC(=O)N[C@H](CO)C(=O)N[C@@H](C)C(=O)O[C@@H]1C (stereo partly drawn) [4c, L-Ala13, D-Ser12-Relacdine B] ({Hexanoyl(4ξ-Me)}-[dS][dY][dW][dOrn][Orn]G[dOrn]WTIG[dS]A; ester 9-C)	>32	1 to 2	2 to 4	1 to 2	4 (≈ 2.56 µM)										
CCC(C)CCC(=O)N[C@H](CO)C(=O)N[C@H](Cc1ccc(O)cc1)C(=O)N[C@H](Cc1c[nH]c2ccccc12)C(=O)N[C@H](CCCN)C(=O)N[C@@H](CCCN)C(=O)NCC(=O)N[C@H](CCCN)C(=O)N[C@@H](Cc1c[nH]c2ccccc12)C(=O)N[C@@H]1C(=O)N[C@@H]([C@@H](C)CC)C(=O)NCC(=O)N[C@@H](CO)C(=O)N[C@H](C)C(=O)O[C@@H]1C (stereo partly drawn) [4b, D-Ala13, L-Ser12-Relacidine B] ({Hexanoyl(4ξ-Me)}-[dS][dY][dW][dOrn][Orn]G[dOrn]WTIGS[dA]; ester 9-C)	>32	2 (≈ 1.28 µM)	4 (≈ 2.56 µM)	2 to 4	4 (≈ 2.56 µM)										
